Assay results taken from US9428505B2, “Hydantoin derivative” (Chugai Seiyaku Kabushiki Kaisha, priority 2012, dated 2016).

Columns and labels:
human PTH1R = human PTH1R (Homo sapiens (Human), UniProt Q03431); test: In vitro cAMP signal activity via the human PTH1R (HKRK-B7 cells); type: cell-based; details: 100 nM human PTH(1-34) = 100%; for EC20: concentration giving 20% cAMP signaling activity; for EC50: concentration giving 50% cAMP signaling activity
Protocol: Measurement of In Vitro cAMP Signal Activity of Compounds Via the Human PTH1R
Human PTH(1-34) and calcitonin were purchased from Peptide Institute, Inc. (Osaka, Japan), dissolved in 10 mM acetic acid to 1 mM and stored in a −80° C. freezer.
Cells were cultured in Dulbecco's modified Eagle's medium (DMEM) supplemented with 10% fetal bovine serum (Hyclone), 100 units/ml penicillin G and 100 μg/ml streptomycin sulfate (Invitrogen Corp) at 37° C. in a humidified atmosphere containing 5% CO2.
cAMP signal transduction analysis utilized LLC-PK1 cells not expressing the PTH1R, and HKRK-B7 cells, that is, LLC-PK1 cells overexpressing the human PTH1R at 9.5×10^5 receptors/cell (Takasu et al., J. Bone. Miner. Res. 14:11-20, 1999).
HKRK-B7 or LLC-PK1 cells were seeded into a 96-well plate at 1×10^5 cells/well and incubated overnight. On the following day, 50 μl of cAMP assay buffer (DMEM, 2 mM IBMX, 0.2 mg/ml bovine serum albumin, 35 mM Hepes-NaOH, pH 7.4) containing human PTH(1-34) or each compound was added and the plate was placed in a 37° C. incubator. The cells were incubated for 20 minutes. After removing the medium, the cells were washed with 100 μl of cAMP assay buffer once. The plate was placed on dry ice powder to freeze the cells and then removed from the dry ice. The cells were lysed with 40 μl of 50 mM HCl and frozen again on dry ice. The amount of intracellular cAMP produced was measured using a commercially available cAMP EIA kit (Biotrack cAMP EIA system, GE health care).
Analyses were performed using a variable gradient S-shaped dose-response curve equation.

[1] = Metabolic stability using rat hepatocyte; type: in vitro ADME; details: for hepatocyte CLint at 1 μM: rat (SD, female) hepatocytes 1×10^6 cells/mL, compound 1 μM, 37° C., read-out: Clearance; for rat hepatocyte metabolic stability compared to Comparative Examples 1, 2, 3, 5, and 6: rat hepatocytes
Protocol: Examination of Metabolic Stability Using Rat Hepatocyte
Liver cells were prepared from the liver of rats (SD, female) by a collagenase perfusion method. A compound of the Examples or a Comparative Example was added, and this was incubated at 37° C. for a specified amount of time, followed by addition of a reaction-stopping solution. The concentration of the parent compound at each reaction time was measured using LC/MS/MS, and inherent clearance (μL/10^6 cells/min) was calculated from the slope of the reaction time versus residual rate.
Cell concentration: 1×10^6 cells/mL
(§1) Compound concentration: 1 μM
Medium: Williams' medium E
Reaction-stopping solution: acetonitrile/2-propanol (4/6, v/v)

[2] = Metabolic stability using human liver microsomes; type: in vitro ADME; details: pH 7.4; human liver microsomes 0.5 mg/mL, compound 1 μM, NADPH 1 mM, 37° C.; read-out: Clearance
Protocol: Examination of Metabolic Stability Using Human Liver Microsomes
In 0.1 M phosphate buffer (pH7.4), human liver microsomes were incubated with a compound or a comparative example in the coexistence of NADPH at 37° C. for a specified amount of time. The concentration of the parent compound at each reaction time was measured using LC/MS/MS, and inherent clearance (μL/min/mg protein) was calculated from the slope of the reaction time versus residual rate.
as §1
Reaction time: 0, 5, 15, and 30 minutes

TPTX rat model = test: Calcemic action in the TPTX rat model; type: in vivo; details: TPTX rats, oral 30 mg/kg; for change of serum Ca concentration from the Pre-value: up to 24 hours after administration; for significance of serum Ca change compared to Comparative Examples 1 and 2: p<0.05
Protocol: Calcemic Action in the TPTX Rat Model
Four-week old female Crl:CD(SD) rats were obtained from Charles River Japan (Atsugi Breeding Center), and were acclimated to standard laboratory conditions of 20-26° C. and 35-75% humidity for one week. The rats were given tap water and were fed ad libitum with standard rodent chow (CE-2) (CLEA Japan, Inc.) containing 1.1% calcium, 1.0% phosphoric acid, and 250 IU/100 g of vitamin D3.
TPTX was performed on five-week old rats. Some of the individuals were subjected to sham operation (Sham). Individuals whose serum Ca concentration was less than 8 mg/dL on four days after the operation were selected for use as TPTX rats. On five days after the operation, the rats were assigned to eight TPTX groups and one Sham group (n=5, each group) based on their body weight and serum Ca concentration measured on four days after the operation. The solvent alone was orally administered to the Sham group and the TPTX-Vehicle group at a volume of 10 mL/kg. Each test article was orally administered individually to each TPTX test article group by dissolving it in a solvent at a dose of 30 mg/10 mL/kg. The solvent composition was 10% dimethylsulfoxide (Wako Pure Chemical Industries, Ltd.), 10% Cremophor EL (Sigma-Aldrich Japan LLC), 20% hydroxypropyl-β-cyclodextrin (Nihon Shokuhin Kako Co., Ltd.), glycine (Wako Pure Chemical Industries, Ltd.); and the pH was adjusted to 10. Immediately before administration of each sample, Pre-blood collection was performed, and blood collection was carried out at 2, 6, 10, and 24 hours after administration to measure the serum Ca concentration. Each blood collection was carried out from the jugular vein under isoflurane inhalation anesthesia.
Serum Ca measurement: Serum obtained by centrifugation from the collected blood was measured by using an automatic analyzer TBA-120FR (Toshiba Medical Systems Corporation).
For statistical analysis of the animal studies, data are shown as mean±standard error (SE). Statistical analysis were performed by unpaired test of the SAS Preclinical Package (Ver. 5.00.010720, SAS Institute Japan, Tokyo, Japan).

rat PTH1R = rat PTH1R (Rattus norvegicus (Rat), UniProt P25961); test: In vitro cAMP signaling activity via the rat PTH1R (LLC-PK46_RATO_PTH1R cells); type: cell-based; details: LLC-PK46_RATO_PTH1R cells overexpressing rat PTH1R; for EC20: 20% cAMP signaling activity; for EC50: 50% cAMP signaling activity
Excerpt: Measurement of the Compounds' In Vitro cAMP Signaling Activity Via the Rat PTH1R
Instead of HKRK-B7 cells, LLC-PK46_RATO_PTH1R cells overexpressing rat PTH1R, which were established at Chugai Pharmaceutical, were used to take measurements in a similar manner to Test Example 1.

Sequence of rat PTH1R (P25961 27-591): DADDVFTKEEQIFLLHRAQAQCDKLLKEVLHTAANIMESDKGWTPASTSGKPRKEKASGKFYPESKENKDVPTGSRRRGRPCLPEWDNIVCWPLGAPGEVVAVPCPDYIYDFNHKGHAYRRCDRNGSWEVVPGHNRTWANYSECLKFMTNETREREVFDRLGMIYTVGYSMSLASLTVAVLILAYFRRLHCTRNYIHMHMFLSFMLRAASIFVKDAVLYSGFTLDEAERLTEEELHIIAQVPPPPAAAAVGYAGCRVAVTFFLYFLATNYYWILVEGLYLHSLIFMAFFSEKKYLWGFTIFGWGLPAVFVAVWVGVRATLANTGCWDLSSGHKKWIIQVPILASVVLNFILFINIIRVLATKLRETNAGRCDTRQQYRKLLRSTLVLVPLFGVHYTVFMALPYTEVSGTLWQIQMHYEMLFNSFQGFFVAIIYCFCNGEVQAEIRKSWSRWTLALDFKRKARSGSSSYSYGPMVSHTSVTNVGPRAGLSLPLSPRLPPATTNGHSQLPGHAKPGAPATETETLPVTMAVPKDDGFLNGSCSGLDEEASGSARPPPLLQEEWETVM
Sequence of human PTH1R (Q03431 27-593): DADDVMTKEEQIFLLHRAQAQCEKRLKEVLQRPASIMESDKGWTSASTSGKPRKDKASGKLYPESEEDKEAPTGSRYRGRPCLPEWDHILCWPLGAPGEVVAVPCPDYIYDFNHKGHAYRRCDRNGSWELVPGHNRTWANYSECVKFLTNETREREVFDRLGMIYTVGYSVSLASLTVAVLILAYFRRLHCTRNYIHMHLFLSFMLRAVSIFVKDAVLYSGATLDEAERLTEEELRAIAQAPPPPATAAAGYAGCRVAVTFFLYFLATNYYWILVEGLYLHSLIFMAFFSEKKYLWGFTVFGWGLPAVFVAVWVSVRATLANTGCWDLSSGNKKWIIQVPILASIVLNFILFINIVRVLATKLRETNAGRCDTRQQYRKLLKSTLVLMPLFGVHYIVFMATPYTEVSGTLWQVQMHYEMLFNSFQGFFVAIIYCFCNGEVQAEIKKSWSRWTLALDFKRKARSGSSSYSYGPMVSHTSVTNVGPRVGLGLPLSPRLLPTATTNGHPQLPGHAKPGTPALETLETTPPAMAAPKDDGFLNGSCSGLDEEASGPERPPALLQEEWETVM

| SMILES | EC20 (human PTH1R) [µM] | EC50 (human PTH1R) [µM] | hepatocyte CLint at 1 μM [1] [µL/min/1e6 cells] | microsomal CLint at 1 μM [2] [µL/min/mg] | achievement of therapeutic target range of serum Ca concentration of 7.6 to 8.8 mg/dL (TPTX rat model) | change of serum Ca concentration from the Pre-value (TPTX rat model) | EC20 (rat PTH1R) [µM] | EC50 (rat PTH1R) [nM] | rat hepatocyte metabolic stability compared to Comparative Examples 1, 2, 3, 5, and 6 [1] | significance of serum Ca change compared to Comparative Examples 1 and 2 (TPTX rat model) |
| --- | --- | --- | --- | --- | --- | --- | --- | --- | --- | --- |
| Cc1cc(N2C(=O)CNC2=O)ccc1CCS(=O)(=O)N1CCC2(CC1)N=C(c1cccc(OC(F)(F)F)c1)NC2=O [Comparative Example 1, reference compound] | 1.5 | 4.8 | 5.8 | 84 | could not be achieved | smaller positive changes from the Pre-value | 0.8 | 2300 | – | – |
| Cc1cc(N2C(=O)NC(=O)C2(C)C)cc(C)c1CCS(=O)(=O)N1CCC2(CC1)N=C(c1cccc(C(F)(F)F)c1)NC2=O [Compound 6, 1-(3,5-dimethyl-4-(2-((4-oxo-2-(3-(trifluoromethyl)phenyl)-1,3,8-triazaspiro[4.5]deca-1-en-8-yl)sulfonyl)ethyl)phenyl)-5,5-dimethylimidazolidine-2,4-dione] | 2.0 | 9 | 1.4 | 29 | achieved the therapeutic target range | large positive changes from the Pre-value | – | – | – | – |
| Cc1cc(N2C(=O)NC(=O)C2(C)C)cc(C)c1CCS(=O)(=O)N1CCC2(CC1)N=C(c1ccc(OC(F)(F)F)cc1)NC2=O [Compound 7, 1-(3,5-dimethyl-4-(2-((4-oxo-2-(4-(trifluoromethoxy)phenyl)-1,3,8-triazaspiro[4.5]deca-1-en-8-yl)sulfonyl)ethyl)phenyl)-5,5-dimethylimidazolidine-2,4-dione] | 1.1 | 4.1 | 0.9 | 30 | achieved the therapeutic target range | large positive changes from the Pre-value | 0.5 | 2400 | increased | statistically significant |
| Cc1cc(N2C(=O)NC(=O)C23CCCC3)cc(C)c1CCS(=O)(=O)N1CCC2(CC1)N=C(c1ccc(OC(F)(F)F)cc1)NC2=O [Compound 8, 1-(3,5-dimethyl-4-(2-((4-oxo-2-(4-(trifluoromethoxy)phenyl)-1,3,8-triazaspiro[4.5]deca-1-en-8-yl)sulfonyl)ethyl)phenyl)-1,3-diazaspiro[4.4]nonane-2,4-dione] | – | – | 3 | 35 | achieved the therapeutic target range | large positive changes from the Pre-value | 0.4 | 1900 | increased | statistically significant |
| Cc1cc(N2C(=O)NC(=O)C23COC3)cc(C)c1CCS(=O)(=O)N1CCC2(CC1)N=C(c1ccc(OC(F)(F)F)cc1)NC2=O [Compound 10, 5-(3,5-dimethyl-4-(2-((4-oxo-2-(4-(trifluoromethoxy)phenyl)-1,3,8-triazaspiro[4.5]deca-1-en-8-yl)sulfonyl)ethyl)phenyl)-2-oxa-5,7-diazaspiro[3.4]octane-6,8-dione] | 5.0 | 21 | 0.3 | 29 | – | – | 3.0 | 12000 | increased | – |
| Cc1cc(N2C(=O)NC(=O)C23CC3)cc(C)c1CCS(=O)(=O)N1CCC2(CC1)N=C(c1ccc(OC(F)(F)F)cc1)NC2=O [Compound 11, 4-(3,5-dimethyl-4-(2-((4-oxo-2-(4-(trifluoromethoxy)phenyl)-1,3,8-triazaspiro[4.5]deca-1-en-8-yl)sulfonyl)ethyl)phenyl)-4,6-diazaspiro[2.4]heptane-5,7-dione] | 1.5 | 11 | – | 19 | – | – | 0.8 | 3200 | increased | – |
